This is an account of results in PMC8667930, “Novel sulphonamide-bearing methoxyquinazolinone derivatives as anticancer and apoptosis inducers: synthesis, biological evaluation and in silico studies” (Journal of Enzyme Inhibition and Medicinal Chemistry, 2021).

The structures appear in SMILES notation.

Data set [1] deals with MCF-7 cells (human breast cancer cell line). Nature of the data set: MTT cytotoxicity assay, MCF-7. The format is cell-based. The note with it: mean ± SD (n = 3), NA = no activity; for IC50: Homo sapiens, MCF7, 48 h treatment; for IC50, MCF-7: 48 h treatment. As to the method:
(§1) The MTT assay was performed to test the antiproliferative activity of the synthesised compounds, as per the methodology described by Alqahtani and co-workers[35]. Briefly, A549, HepG2, LoVo, MCF-7 and HUVEC cell lines were seeded in 96-cell culture plates (5 × 10^4 per well) and allowed 24 h for adherence. The cells were then treated with different concentrations of each compound, and 5-fluorouracil was used as a positive control. Following the treatment period (48 h), 10 µL of MTT solution (5 mg/mL) was added to each well and the plates were incubated at 37 °C for 2–4 h. Isopropanol (100 µL) acidified with 0.1 N HCl was added to solubilise the formazan products and the plate was kept on a shaker for 10 min. The optical density of each mixture was measured at 570 nm using an enzyme-linked immunosorbent assay plate reader (ELISA plate reader, Bio-Tek, USA). The concentrations of tested compounds required to inhibit cell growth by 50% (IC50) were calculated using a dose-response curve. Cell survival was calculated using the following equation: Cell survival (%)=(OD of treated sample)/(OD of untreated sample)×100
In general terms: Formazan colour is commonly taken as a measure of viable cells.

Data set [2] concerns A549 cells (non-small cell lung carcinoma). The data set can be described thus: MTT cytotoxicity assay, A549. The data set is classed as cell-based. The note with it: mean ± SD (n = 3), NA = no activity; for IC50: Homo sapiens, A549, 48 h treatment; for IC50, A549: 48 h treatment. As for the experimental part: as §1
The test system of data set [3] is HepG2 cells (liver cancer). Nature of the data set: MTT cytotoxicity assay, HepG2. The data set is classed as cell-based. Particulars: mean ± SD (n = 3), NA = no activity; for IC50: Homo sapiens, HepG2, 48 h treatment; for IC50, HepG2: 48 h treatment. As to the method:
as §1

Data set [4] has as its system HUVEC (normal human umbilical vein endothelial cells). The data set can be described thus: MTT cytotoxicity assay, HUVEC. The format is cell-based. Particulars: 48 h treatment, mean ± SD (n = 3), NA = no activity; for IC50: Homo sapiens, HUVEC. As to the method: as §1
Data set [5] concerns LoVo cells (colon cancer). Nature of the data set: MTT cytotoxicity assay, LoVo. The data set is classed as cell-based. The note with it: 48 h treatment, mean ± SD (n = 3), NA = no activity; for IC50: Homo sapiens, LoVo. As to the method: as §1

Take `O=c1[nH]cc(F)c(=O)[nH]1` [5-Flurouracil, 5-Fluorouracil, reference compound]: the half-maximal inhibitory concentration (IC50) (as a rule, the concentration that inhibits the measured activity by half) in data set [1] came out at 95.63 ± 0.3 µM; in data set [2], 98.86 ± 0.01 µM; in data set [3] it was 132.4 ± 0.6 µM; in data set [4] it was 167 ± 0.2 µM; in data set [5], 90.71 ± 0.5 µM.
Turning to `COc1cccc2c(=O)n(-c3ccc(S(N)(=O)=O)cc3)c(SCC(=O)Nc3ccccc3)nc12` [Compound 5, 2-((8-Methoxy-4-oxo-3–(4-sulphamoylphenyl)-3,4-dihydroquinazolin-2-yl)thio)-N-phenyl-acetamide], the melting point (commonly the temperature of the solid-liquid transition) is > 350 °C. The “IC50, MCF-7” value in data set [1] is listed as “no activity”. For the same molecule, in data set [2], the “IC50, A549” value is reported as “no activity”. Also, in data set [3], the “IC50, HepG2” value is reported as “no activity”. Besides, in data set [4], the “IC50, HUVEC” value is on record as “no activity”. Moreover, the “IC50, LoVo” value in data set [5] is “no activity”.
Turning to `COc1cccc2c(=O)n(-c3ccc(S(N)(=O)=O)cc3)c(SCC(=O)Nc3cccc(C)c3)nc12` [Compound 7, 2-((8-Methoxy-4-oxo-3-(4-sulphamoylphenyl)-3,4-dihydroquinazolin-2-yl)thio)-N-(m-tolyl) acetamide], the melting point was > 350 °C. The same molecule returned an IC50 in data set [1] of 27.7 ± 1.85 µM. Also, inhibition in data set [2] was half-maximal at 58.6 ± 1.52 µM (IC50). For the same molecule, the 50% inhibitory concentration (IC50) in data set [3] was 39.7 ± 2.27 µM. This molecule also yielded an IC50 in data set [4] of 83.2 ± 0.9 µM. Also, half-maximal inhibition in data set [5] (IC50) required 30.1 ± 1.3 µM.
Take `COc1cccc2c(=O)n(-c3ccc(S(N)(=O)=O)cc3)c(SCC(=O)Nc3ccc(C)cc3)nc12` [Compound 8, 2-((8-Methoxy-4-oxo-3-(4-sulphamoylphenyl)-3,4-dihydroquinazolin-2-yl)thio)-N-(p-tolyl) acetamide]: the melting point is > 350 °C. Moreover, the “IC50, MCF-7” value in data set [1] was “no activity”. The “IC50, A549” value in data set [2] is on record as “no activity”. Further, the “IC50, HepG2” value in data set [3] was “no activity”. Besides, the “IC50, HUVEC” value in data set [4] was “no activity”. Also, the “IC50, LoVo” value in data set [5] is recorded as “no activity”.
As to `CCc1ccccc1NC(=O)CSc1nc2c(OC)cccc2c(=O)n1-c1ccc(S(N)(=O)=O)cc1` [Compound 9, N-(2-Ethylphenyl)-2-((8-methoxy-4-oxo-3-(4-sulphamoylphenyl)-3,4-dihydroquinazolin-2-yl)thio) acetamide], the melting point is 288 to 290 °C. Besides, the “IC50, MCF-7” value in data set [1] is reported as “no activity”. In data set [2], the “IC50, A549” value was “no activity”. Further, in data set [3], the “IC50, HepG2” value is recorded as “no activity”. Besides, the “IC50, HUVEC” value in data set [4] is “no activity”. Besides, the “IC50, LoVo” value in data set [5] is given as “no activity”.
`CCc1ccc(NC(=O)CSc2nc3c(OC)cccc3c(=O)n2-c2ccc(S(N)(=O)=O)cc2)cc1` [Compound 11, N-(4-Ethylphenyl)-2-((8-methoxy-4-oxo-3-(4-sulphamoylphenyl)-3,4-dihydroquinazolin-2-yl)thio) acetamide]: the melting point lay within 280 to 282 °C. This molecule also gave an IC50 in data set [1] of 29.4 ± 0.33 µM. For the same molecule, the half-inhibitory concentration (IC50) in data set [2] was found to be 50.5 ± 1.73 µM. Further, in data set [3], the IC50 turned out to be 42.7 ± 0.84 µM. The half-maximal inhibitory concentration (IC50) in data set [4] came to 32.9 ± 1.4 µM.
Regarding `COc1ccc(NC(=O)CSc2nc3c(OC)cccc3c(=O)n2-c2ccc(S(N)(=O)=O)cc2)cc1` [Compound 12, 2-((8-Methoxy-4-oxo-3-(4-sulphamoylphenyl)-3,4-dihydroquinazolin-2-yl)thio)-N-(p-methoxyphenyl) acetamide], the melting point was in the range of 296 to 298 °C. Further, in data set [1], the “IC50, MCF-7” value was “no activity”. Moreover, the “IC50, A549” value in data set [2] is reported as “no activity”. In addition, the “IC50, HepG2” value in data set [3] is recorded as “no activity”. The “IC50, HUVEC” value in data set [4] was “no activity”. For the same molecule, the “IC50, LoVo” value in data set [5] is on record as “no activity”.
Turning to `CCOc1ccc(NC(=O)CSc2nc3c(OC)cccc3c(=O)n2-c2ccc(S(N)(=O)=O)cc2)cc1` [Compound 13, N-(p-Ethoxyphenyl)-2-((8-methoxy-4-oxo-3-(4-sulphamoylphenyl)-3,4-dihydroquin-azolin-2-yl)thio) acetamide], the melting point was 300 to 302 °C. The midpoint of inhibition in data set [1], the IC50, lay at 46.7 ± 1.23 µM. For the same molecule, the half-inhibitory concentration (IC50) in data set [2] is 61.9 ± 1.35 µM. The IC50 in data set [3] came out at 38 ± 0.47 µM. In addition, the half-inhibitory concentration (IC50) in data set [4] was 39 ± 1.4 µM. In data set [5], this molecule came in with a half-inhibitory concentration (IC50) of 54.4 ± 2.07 µM.
On to `COc1cc(NC(=O)CSc2nc3c(OC)cccc3c(=O)n2-c2ccc(S(N)(=O)=O)cc2)cc(OC)c1` [Compound 14, N-(3,5-Dimethoxyphenyl)-2-((8-methoxy-4-oxo-3-(4-sulphamoylphenyl)-3,4-dihydroq-uinazolin-2-yl)thio) acetamide], for which the melting point lay in the range of 240 to 242 °C. In addition, the IC50 in data set [1] amounted to 34.6 ± 1.15 µM. The molecule also had a half-inhibitory concentration (IC50) in data set [2] of 68.34 ± 0.42 µM. This molecule gave an IC50 in data set [3] of 72.5 ± 1.06 µM. Further, in data set [4], 62.6 ± 2.34 µM corresponded to half-maximal inhibition (IC50). This molecule also came in with a half-maximal inhibitory concentration (IC50) in data set [5] of 38.3 ± 0.65 µM.
Regarding `COc1cc(NC(=O)CSc2nc3c(OC)cccc3c(=O)n2-c2ccc(S(N)(=O)=O)cc2)cc(OC)c1OC` [Compound 15, 2-((8-Methoxy-4-oxo-3-(4-sulphamoylphenyl)-3,4-dihydroquinazolin-2-yl)thio)-N-(3,4,5-trimethoxyphenyl) acetamide], the melting point lay within 290 to 292 °C. Moreover, the 50% inhibitory concentration (IC50) in data set [1] was 74 ± 2.16 µM. Moreover, the IC50 in data set [2] worked out at 75 ± 1.74 µM. The molecule further displayed a concentration for half-maximal inhibition (IC50) in data set [3] of 75.2 ± 0.96 µM. The molecule further gave an IC50 in data set [4] of 79 ± 1.09 µM. Inhibition in data set [5] was half-maximal at 47.5 ± 4.08 µM (IC50).
For the molecule `COc1cccc2c(=O)n(-c3ccc(S(N)(=O)=O)cc3)c(SCC(=O)Nc3ccc([N+](=O)[O-])cc3C)nc12` [Compound 16, 2-((8-Methoxy-4-oxo-3-(4-sulphamoylphenyl)-3,4-dihydroquinazolin-2-yl)thio)-N-(2-methyl-4-nitrophenyl) acetamide], the melting point is > 350 °C. This molecule displayed an IC50 in data set [1] of 39.9 ± 0.57 µM. Moreover, the concentration for half-maximal inhibition (IC50) in data set [2] worked out at 67.4 ± 1.45 µM. In addition, in data set [3], half-maximal inhibition (IC50) required 75.7 ± 1.85 µM. This molecule also showed an IC50 in data set [4] of 80.8 ± 1.13 µM. Further, the 50% inhibitory concentration (IC50) in data set [5] came to 40.98 ± 0.12 µM.
As to `COc1cccc2c(=O)n(-c3ccc(S(N)(=O)=O)cc3)c(SCC(=O)Nc3c(C)cccc3[N+](=O)[O-])nc12` [Compound 17, 2-((8-Methoxy-4-oxo-3-(4-sulphamoylphenyl)-3,4-dihydroquinazolin-2-yl)thio)-N-(2-methyl-6-nitrophenyl) acetamide], the melting point was > 350 °C. In data set [1], the “IC50, MCF-7” value was “no activity”. Besides, the “IC50, A549” value in data set [2] is recorded as “no activity”. Moreover, the “IC50, HepG2” value in data set [3] is given as “no activity”. Moreover, in data set [4], the “IC50, HUVEC” value is “no activity”. Further, the “IC50, LoVo” value in data set [5] is on record as “no activity”.
